{"source": "PubChem BioAssay AID2060607", "about": "(Molecular Pharmacology Branch, DTP, NCI, 2025)", "tested_on": "876862-298-R-J1-PDC complex spheroids, viability % test/control", "test": "Anticancer human tumor 876862-298-R-J1-PDC patient-derived endometrial carcinoma cell line growth inhibition [CLK]", "settings": "for pIC50: curve of first compound; for viability, T/C: stronger effect = lower value", "method_in_brief": "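Patient-derived tumor cells grown as complex spheroids with HUVEC endothelial cells and mesenchymal stem cells, treated with drug combinations. Concentrations descend in half-log steps from near clinical Cmax, or from 10 microM if Cmax unknown.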", "key": {"[1]": {"settings": "second compound 0.0316 µM, first compound 0.0316 µM"}, "[2]": {"settings": "second compound 0.0316 µM, first compound 0.1 µM"}, "[3]": {"settings": "second compound 0.0316 µM, first compound 0.316 µM"}, "[4]": {"settings": "second compound 0.0316 µM, first compound 1 µM"}, "[5]": {"settings": "second compound 0.0316 µM, first compound 3.16 µM"}, "[6]": {"settings": "second compound 0.0316 µM, first compound 10 µM"}, "[7]": {"settings": "second compound 0.1 µM, first compound 0.0316 µM"}, "[8]": {"settings": "second compound 0.1 µM, first compound 0.1 µM"}, "[9]": {"settings": "second compound 0.1 µM, first compound 0.316 µM"}, "[10]": {"settings": "second compound 0.1 µM, first compound 1 µM"}, "[11]": {"settings": "second compound 0.1 µM, first compound 3.16 µM"}, "[12]": {"settings": "second compound 0.1 µM, first compound 10 µM"}, "[13]": {"settings": "second compound 0.316 µM, first compound 0.0316 µM"}, "[14]": {"settings": "second compound 0.316 µM, first compound 0.1 µM"}, "[15]": {"settings": "second compound 0.316 µM, first compound 0.316 µM"}, "[16]": {"settings": "second compound 0.316 µM, first compound 1 µM"}, "[17]": {"settings": "second compound 0.316 µM, first compound 3.16 µM"}, "[18]": {"settings": "second compound 0.316 µM, first compound 10 µM"}, "[19]": {"settings": "second compound 1 µM, first compound 0.0316 µM"}, "[20]": {"settings": "second compound 1 µM, first compound 0.1 µM"}, "[21]": {"settings": "second compound 1 µM, first compound 0.316 µM"}, "[22]": {"settings": "second compound 1 µM, first compound 1 µM"}, "[23]": {"settings": "second compound 1 µM, first compound 3.16 µM"}, "[24]": {"settings": "second compound 1 µM, first compound 10 µM"}, "[25]": {"settings": "second compound 3.16 µM, first compound 0.0316 µM"}, "[26]": {"settings": "second compound 3.16 µM, first compound 0.1 µM"}, "[27]": {"settings": "second compound 3.16 µM, first compound 0.316 µM"}, "[28]": {"settings": "second compound 3.16 µM, first compound 1 µM"}, "[29]": {"settings": "second compound 3.16 µM, first compound 3.16 µM"}, "[30]": {"settings": "second compound 3.16 µM, first compound 10 µM"}, "[31]": {"settings": "second compound 10 µM, first compound 0.0316 µM"}, "[32]": {"settings": "second compound 10 µM, first compound 0.1 µM"}, "[33]": {"settings": "second compound 10 µM, first compound 0.316 µM"}, "[34]": {"settings": "second compound 10 µM, first compound 1 µM"}, "[35]": {"settings": "second compound 10 µM, first compound 3.16 µM"}, "[36]": {"settings": "second compound 10 µM, first compound 10 µM"}}, "note": "pIC50: −log10 of the molar value.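 Note: spheroids exposed to drugs for 7 days before readout.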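 Throughout, for viability, T/C: 100% = DMSO vehicle control wells.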", "data": [{"smiles": "O=C(c1cc(Cc2n[nH]c(=O)c3ccccc23)ccc1F)N1CCN(C(=O)C2CC2)CC1", "note": "+ CN1CCN(c2cc(C(=O)Nc3cc4cc(-c5cnn(C)c5)ccc4cn3)ccn2)CC1", "values": [{"measurement": "pIC50", "setting": "second compound 0.0316 µM", "result": "< 5.00"}, {"measurement": "pIC50", "setting": "second compound 0.1 µM", "result": 6.20}, {"measurement": "pIC50", "setting": "second compound 0.316 µM", "result": "> 7.50"}, {"measurement": "pIC50", "setting": "second compound 1 µM", "result": "> 7.50"}, {"measurement": "pIC50", "setting": "second compound 3.16 µM", "result": "> 7.50"}, {"measurement": "pIC50", "setting": "second compound 10 µM", "result": "> 7.50"}, {"measurement": "viability, T/C", "setting": "[1]", "result": 88.1, "unit": "%"}, {"measurement": "viability, T/C", "setting": "[2]", "result": 95.5, "unit": "%"}, {"measurement": "viability, T/C", "setting": "[3]", "result": 85.7, "unit": "%"}, {"measurement": "viability, T/C", "setting": "[4]", "result": 94.9, "unit": "%"}, {"measurement": "viability, T/C", "setting": "[5]", "result": 96.2, "unit": "%"}, {"measurement": "viability, T/C", "setting": "[6]", "result": 74.6, "unit": "%"}, {"measurement": "viability, T/C", "setting": "[7]", "result": 51.3, "unit": "%"}, {"measurement": "viability, T/C", "setting": "[8]", "result": 50.5, "unit": "%"}, {"measurement": "viability, T/C", "setting": "[9]", "result": 50.9, "unit": "%"}, {"measurement": "viability, T/C", "setting": "[10]", "result": 50.6, "unit": "%"}, {"measurement": "viability, T/C", "setting": "[11]", "result": 45, "unit": "%"}, {"measurement": "viability, T/C", "setting": "[12]", "result": 35.2, "unit": "%"}, {"measurement": "viability, T/C", "setting": "[13]", "result": 2.72, "unit": "%"}, {"measurement": "viability, T/C", "setting": "[14]", "result": 3.01, "unit": "%"}, {"measurement": "viability, T/C", "setting": "[15]", "result": 2.89, "unit": "%"}, {"measurement": "viability, T/C", "setting": "[16]", "result": 3.34, "unit": "%"}, {"measurement": "viability, T/C", "setting": "[17]", "result": 3.07, "unit": "%"}, {"measurement": "viability, T/C", "setting": "[18]", "result": 2.03, "unit": "%"}, {"measurement": "viability, T/C", "setting": "[19]", "result": 0.78, "unit": "%"}, {"measurement": "viability, T/C", "setting": "[20]", "result": 1.06, "unit": "%"}, {"measurement": "viability, T/C", "setting": "[21]", "result": 0.79, "unit": "%"}, {"measurement": "viability, T/C", "setting": "[22]", "result": 0.54, "unit": "%"}, {"measurement": "viability, T/C", "setting": "[23]", "result": 0.67, "unit": "%"}, {"measurement": "viability, T/C", "setting": "[24]", "result": 0.77, "unit": "%"}, {"measurement": "viability, T/C", "setting": "[25]", "result": 1.02, "unit": "%"}, {"measurement": "viability, T/C", "setting": "[26]", "result": 0.99, "unit": "%"}, {"measurement": "viability, T/C", "setting": "[27]", "result": 1.13, "unit": "%"}, {"measurement": "viability, T/C", "setting": "[28]", "result": 1.07, "unit": "%"}, {"measurement": "viability, T/C", "setting": "[29]", "result": 2.34, "unit": "%"}, {"measurement": "viability, T/C", "setting": "[30]", "result": 1.07, "unit": "%"}, {"measurement": "viability, T/C", "setting": "[31]", "result": 0.83, "unit": "%"}, {"measurement": "viability, T/C", "setting": "[32]", "result": 0.87, "unit": "%"}, {"measurement": "viability, T/C", "setting": "[33]", "result": 0.89, "unit": "%"}, {"measurement": "viability, T/C", "setting": "[34]", "result": 1.19, "unit": "%"}, {"measurement": "viability, T/C", "setting": "[35]", "result": 1.06, "unit": "%"}, {"measurement": "viability, T/C", "setting": "[36]", "result": 0.83, "unit": "%"}]}, {"smiles": "C#Cc1c(F)ccc2cc(O)cc(-c3ncc4c(N5CC6CCC(C5)N6)nc(OCC56CCCN5CC(F)C6)nc4c3F)c12", "note": "(centres undefined) + CNC(=O)c1ccc(Nc2nc(OC3CCCC3)c3c(-c4ccc5nc(C)oc5c4)c[nH]c3n2)c(OC)c1", "values": [{"measurement": "pIC50", "setting": "second compound 0.0316 µM", "result": "< 5.00"}, {"measurement": "pIC50", "setting": "second compound 0.1 µM", "result": "> 7.50"}, {"measurement": "pIC50", "setting": "second compound 0.316 µM", "result": "> 7.50"}, {"measurement": "pIC50", "setting": "second compound 1 µM", "result": "> 7.50"}, {"measurement": "pIC50", "setting": "second compound 3.16 µM", "result": "> 7.50"}, {"measurement": "pIC50", "setting": "second compound 10 µM", "result": "> 7.50"}, {"measurement": "viability, T/C", "setting": "[1]", "result": 65.6, "unit": "%"}, {"measurement": "viability, T/C", "setting": "[2]", "result": 88.8, "unit": "%"}, {"measurement": "viability, T/C", "setting": "[3]", "result": 71.9, "unit": "%"}, {"measurement": "viability, T/C", "setting": "[4]", "result": 75.3, "unit": "%"}, {"measurement": "viability, T/C", "setting": "[5]", "result": 76.3, "unit": "%"}, {"measurement": "viability, T/C", "setting": "[6]", "result": 71.4, "unit": "%"}, {"measurement": "viability, T/C", "setting": "[7]", "result": 46.5, "unit": "%"}, {"measurement": "viability, T/C", "setting": "[8]", "result": 52.8, "unit": "%"}, {"measurement": "viability, T/C", "setting": "[9]", "result": 42.7, "unit": "%"}, {"measurement": "viability, T/C", "setting": "[10]", "result": 46.6, "unit": "%"}, {"measurement": "viability, T/C", "setting": "[11]", "result": 49.9, "unit": "%"}, {"measurement": "viability, T/C", "setting": "[12]", "result": 38.2, "unit": "%"}, {"measurement": "viability, T/C", "setting": "[13]", "result": 38, "unit": "%"}, {"measurement": "viability, T/C", "setting": "[14]", "result": 40.4, "unit": "%"}, {"measurement": "viability, T/C", "setting": "[15]", "result": 38.9, "unit": "%"}, {"measurement": "viability, T/C", "setting": "[16]", "result": 41.7, "unit": "%"}, {"measurement": "viability, T/C", "setting": "[17]", "result": 39.6, "unit": "%"}, {"measurement": "viability, T/C", "setting": "[18]", "result": 34.4, "unit": "%"}, {"measurement": "viability, T/C", "setting": "[19]", "result": 33.5, "unit": "%"}, {"measurement": "viability, T/C", "setting": "[20]", "result": 34.9, "unit": "%"}, {"measurement": "viability, T/C", "setting": "[21]", "result": 27.7, "unit": "%"}, {"measurement": "viability, T/C", "setting": "[22]", "result": 30.5, "unit": "%"}, {"measurement": "viability, T/C", "setting": "[23]", "result": 32.9, "unit": "%"}, {"measurement": "viability, T/C", "setting": "[24]", "result": 26.2, "unit": "%"}, {"measurement": "viability, T/C", "setting": "[25]", "result": 23.6, "unit": "%"}, {"measurement": "viability, T/C", "setting": "[26]", "result": 22.1, "unit": "%"}, {"measurement": "viability, T/C", "setting": "[27]", "result": 22.8, "unit": "%"}, {"measurement": "viability, T/C", "setting": "[28]", "result": 21.7, "unit": "%"}, {"measurement": "viability, T/C", "setting": "[29]", "result": 24.9, "unit": "%"}, {"measurement": "viability, T/C", "setting": "[30]", "result": 20.2, "unit": "%"}, {"measurement": "viability, T/C", "setting": "[31]", "result": 20.1, "unit": "%"}, {"measurement": "viability, T/C", "setting": "[32]", "result": 20.4, "unit": "%"}, {"measurement": "viability, T/C", "setting": "[33]", "result": 21.4, "unit": "%"}, {"measurement": "viability, T/C", "setting": "[34]", "result": 21.6, "unit": "%"}, {"measurement": "viability, T/C", "setting": "[35]", "result": 20.3, "unit": "%"}, {"measurement": "viability, T/C", "setting": "[36]", "result": 19.4, "unit": "%"}]}]}
